Target: T1, human FP receptor (Homo sapiens, UniProt P43088)
T1 construct: expressed in transfected cells
Assay: Ca2+ signaling: antagonism of the 17-phenyl PGF2α response in HEK cells stably transfected with the human FP receptor
Assay type: cell-based
Details: compared with the compound of U.S. Pat. Nos. 5,100,889 and 5,153,327
Procedure: The compound of Example 22 was tested for PGF2αantagonist activity as follows:
HEK cells stably transfected with the human FP receptor were removed from the culture flasks by approximately 1 min treatment with trypsin 0.05%/0.53 mM EDTA in HBSS (Gibco, Grand Island, N.Y.) at 37° C. Proteolytic activity was arrested by adding 5 ml of 10% fetal bovine serum in DMEM. The cells were consecutively washed in Hank's BSS and medium containing 140 mM NaCl, […], 1 mM MgCl2, 1.5 mM CaCl2, 10 mM HEPES: TRIS, 5 mM glucose, 5 mM Na pyruvate, 0.1% bovine serum albumin at pH 7.4: centrifugation for the washes was performed for 15 minutes at 200 g at room temperature. Cells were counted, resuspended in the above medium and incubated with 2×10^−6 M Fura 2/acetoxymethyl ester in a shaking water bath for 30 minutes at 37° C. The cells were subsequently washed in medium as above and resuspended at a concentration of 2×10^6 cells ml^−1. Aliquots of 0.5 ml cell suspension were then added to autocap microtubes to provide 10^6 cells per experimental determination of intracellular free Ca^2+concentration ([Ca^2+]i).
Fluorescence was measured in a Perkin-Elmer LS-5 fluorescence spectrophotometer at excitation and emission wavelengths of 340 and 492 nm, respectively, with both slits at 10 nm. […]

T1 sequence (P43088 whole entry): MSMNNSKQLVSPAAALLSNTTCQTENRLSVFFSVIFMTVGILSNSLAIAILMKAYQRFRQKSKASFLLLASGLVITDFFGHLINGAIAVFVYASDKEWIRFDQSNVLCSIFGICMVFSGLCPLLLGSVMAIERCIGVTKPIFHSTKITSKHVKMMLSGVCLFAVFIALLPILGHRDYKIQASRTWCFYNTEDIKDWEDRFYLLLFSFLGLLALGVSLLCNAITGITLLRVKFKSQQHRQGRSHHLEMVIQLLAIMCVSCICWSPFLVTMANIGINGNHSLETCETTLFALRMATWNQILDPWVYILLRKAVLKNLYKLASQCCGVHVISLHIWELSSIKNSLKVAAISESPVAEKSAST

SMILES | PGF2α antagonist activity (comparison in words)
COC(=O)CCc1ccccc1CC1C2CCC(O2)C1c1nc(C(=O)NCCCCC2CCCCC2)co1 (centres unmarked) | much less active than the corresponding acid
O=C(O)CCc1ccc(F)cc1C[C@@H]1[C@H](c2nc(C(=O)NCCCCC3CCCCC3)co2)[C@H]2CC[C@H]1O2 [Example 22, 3-(2-{(1R, 2R, 3S, 4R)-3-[4-(4-Cyclohexyl-butylcarbamoyl)-oxazol-2-yl]-7-oxa-bicyclo[2.2.1]hept-2-ylmethyl}-4-fluoro-phenyl)-propionic acid] | greater than the compound disclosed in U.S. Pat. Nos. 5,100,889 and 5,153,327
